From patent US20250368628A1, “METHODS AND COMPOUNDS FOR MODULATING INHERITED GENETIC DISEASES” (Design Therapeutics, Inc., priority 2022, published 2025) come the findings set out here.

The subject of the experiment is Myotonic Dystrophy 1 affected patient fibroblasts (Coriel GM04602; 1600 CTG repeats). In words: DM1 foci reduction assay (EC50 assay; CAG10-Cy3 FISH, foci per nucleus). The class given is cell-based. Particulars: Homo sapiens, Fibroblast; DM1 patient fibroblasts, 48 h treatment, foci per nucleus; read-out: DM1 EC50, 48 h. The method, then: DM1 Foci Reduction Assay Methods
Myotonic Dystrophy 1 affected patient fibroblasts (Coriel GM04602; 1600 CTG repeats) and wild type fibroblasts (Coriell GM07492; control line) were cultured separately in Gibco DMEM (1×)+4.5 g/L D-Glucose+L-Glutamine+[…] Sodium Pyruvate, supplemented with 10% FBS and 1× Pen/Strep. Cells were maintained in an incubator at 37° C. and 5% CO2 with media refreshed every 48-72 hours.
At 90-95% confluency, both cell lines were harvested using Trypl-E then pelleted at 500×g for 5 minutes and were resuspended in fresh media. DM1 fibroblasts were seeded in Agilent 96 well black plates at a density of 5,000 cells/well in 200 μL media; and 8 wells were reserved for control fibroblasts. Plates were returned to incubator for 24 hours at 37° C. and 5% CO2.
Compounds were diluted from 10 mM stock to 1 mM in DMSO and then diluted once more to 6 μM (2× concentration) in media. Media was removed from all plates and cells were replenished with 100 μL media. Cells were treated in 8-point dose response, 1:3 fold dilution, 3 μM top dose via addition of 100 μL of 6 μM (2× concentration) compound to the 100 μL media with cells. Plates were returned to incubator for 48 hours at 37° C. and 5% CO2.
Following treatment, compounds were removed, and plates were washed with PBS, then cells were fixed in 75 μL 4% PFA solution for 20 minutes at room temperature. Plates were washed twice with PBS and twice with cold 70% ethanol before permeabilization with 250 μL cold 70% ethanol for 24-72 hours at −20° C.
After permeabilization, plates were washed once with a 30% formamide and 2×SSC buffer and rehydrated in that buffer for 15 minutes at room temperature. Cells were incubated overnight at 37° C. in 75 μL of a hybridization solution containing 30% formamide, 2×SSC, 25 mg/mL dextran sulfate, 2.5 mg/mL BSA, 0.2 μg/mL Herring sperm DNA, 2 mM vanadyl-ribonucleoside complex, and 5 nM CAG10-Cy3 probe.
Plates were washed once with 30% formamide in 2×SSC buffer, then twice with the buffer for 30 minutes at 37° C., 300 RPM in an incubating plate shaker. Cells were stained with 75 μL of 2.5 μg/mL DAPI in PBS for 5 minutes at room temperature. Plates were then washed twice with PBS and stored in 250 μL PBS. Plates were sealed with adhesive foil and wiped down with 70% ethanol.
Cells were imaged on a Cytation5 with a 20× objective sampling from 4 areas of each well. Nuclei were captured under DAPI channel and foci under RFP channel. Plates were analyzed on an average foci per nucleus per well basis.
By EC50 is commonly meant the midpoint of the concentration-response curve. Consider `CCCNC(=O)c1cc(NC(=O)c2nc(NC(=O)CCNC(=O)c3cc(NC(=O)c4nc(NC(=O)[C@H](N)CCNC(=O)c5cc(NC(=O)c6nc(NC(=O)CCNC(=O)c7cc(NC(=O)c8nccn8C)cn7C)cn6C)cn5C)cn4C)cn3C)cn2C)cn1C` [Compound B-6], for which the EC50 was 500 to 1000 nM.
As for `CCCNC(=O)c1cc(NC(=O)c2nc(NC(=O)CCNC(=O)c3cc(NC(=O)c4nc(NC(=O)[C@@H](CCNC(=O)c5cc(NC(=O)c6nc(NC(=O)CCNC(=O)c7cc(NC(=O)c8nccn8C)cn7C)cn6C)cn5C)NC(C)=O)cn4C)cn3C)cn2C)cn1C` [Compound B-7], the figure is 500 to 1000 nM.
As to `Cn1cc(NC(=O)c2nc(NC(=O)CCNC(=O)c3cc(NC(=O)c4nccn4C)cn3C)cn2C)cc1C(=O)NCCCC(=O)Nc1cn(C)c(C(=O)NCCC(=O)Nc2cc(C(=O)Nc3cn(C)c(C(=O)NCCC(=O)NCCOCCOCCOCCOCCOc4ccc(NC(=O)OCc5ccccc5)cc4)n3)n(C)c2)n1` [Compound B-11], the EC50 was more than 1000 nM.
Regarding `Cn1cc(NC(=O)c2nc(NC(=O)CCNC(=O)c3cc(NC(=O)c4nccn4C)cn3C)cn2C)cc1C(=O)NCCCC(=O)Nc1cn(C)c(C(=O)NCCC(=O)Nc2cc(C(=O)Nc3cn(C)c(C(=O)NCCC(=O)NCCOCCOCCOc4ccc(NC(=O)OCc5ccccc5)cc4)n3)n(C)c2)n1` [Compound B-13], the EC50 is more than 1000 nM.
Next, `Cn1cc(NC(=O)c2nc(NC(=O)CCNC(=O)c3cc(NC(=O)c4nccn4C)cn3C)cn2C)cc1C(=O)NCCCC(=O)Nc1cn(C)c(C(=O)NCCC(=O)Nc2cc(C(=O)Nc3cn(C)c(C(=O)NCCC(=O)N4CCC(N5CCN(CCOCCOCCOCCOCCN)CC5)CC4)n3)n(C)c2)n1` [Compound B-24]: more than 1000 nM.
Next, `Cn1cc(NC(=O)c2nc(NC(=O)CCNC(=O)c3cc(NC(=O)c4nccn4C)cn3C)cn2C)cc1C(=O)NCCCC(=O)Nc1cn(C)c(C(=O)NCCC(=O)Nc2cc(C(=O)Nc3cn(C)c(C(=O)NCCC(=O)NCCOCCN4CCN(C5CCN(c6ccc([N+](=O)[O-])cc6)CC5)CC4)n3)n(C)c2)n1` [Compound B-26]: more than 1000 nM.
Regarding `Cn1cc(NC(=O)c2nc(NC(=O)CCNC(=O)c3cc(NC(=O)c4nccn4C)cn3C)cn2C)cc1C(=O)NCCCC(=O)Nc1cn(C)c(C(=O)NCCC(=O)Nc2cc(C(=O)Nc3cn(C)c(C(=O)NCCC(=O)N4CCN(C5CCN(c6ccc([N+](=O)[O-])cc6)CC5)CC4)n3)n(C)c2)n1` [Compound B-29, 1-Methyl-4-{1-methyl-4-[3-({1-methyl-4-[4-({1-methyl-4-[1-methyl-4-(3-{[1-methyl-4-(1-methylimidazole-2-amido)pyrrol-2-yl]formamido}propanamido)imidazole-2-amido]pyrrol-2-yl}formamido)butanamido]imidazol-2-yl}formamido)propanamido]pyrrole-2-amido}-N-(3-{4-[1-(4-nitrophenyl)piperidin-4-yl]piperazin-1-yl}-3-oxopropyl)imidazole-2-carboxamide], the EC50 is more than 1000 nM.
As for `Cn1cc(NC(=O)c2nc(NC(=O)CCNC(=O)c3cc(NC(=O)c4nccn4C)cn3C)cn2C)cc1C(=O)NCCCC(=O)Nc1cn(C)c(C(=O)NCCC(=O)Nc2cc(C(=O)Nc3cn(C)c(C(=O)NCCC(=O)NCCCN=C(N)N)n3)n(C)c2)n1` [Compound B-34], the figure is 500 to 1000 nM.
`CCCCCCCCCCNC(=O)CCNC(=O)c1nc(NC(=O)c2cc(NC(=O)CCNC(=O)c3nc(NC(=O)CCCNC(=O)c4cc(NC(=O)c5nc(NC(=O)CCNC(=O)c6cc(NC(=O)c7nccn7C)cn6C)cn5C)cn4C)cn3C)cn2C)cn1C` [Compound B-40]: the EC50 is less than 100 nM.
Next, `CN(C)CCCCCNC(=O)CCNC(=O)c1nc(NC(=O)c2cc(NC(=O)CCNC(=O)c3nc(NC(=O)CCCNC(=O)c4cc(NC(=O)c5nc(NC(=O)CCNC(=O)c6cc(NC(=O)c7nccn7C)cn6C)cn5C)cn4C)cn3C)cn2C)cn1C` [Compound B-41]: 100 to 500 nM; `Cn1cc(NC(=O)c2nc(NC(=O)CCNC(=O)c3cc(NC(=O)c4nccn4C)cn3C)cn2C)cc1C(=O)NCCCC(=O)Nc1cn(C)c(C(=O)NCCC(=O)Nc2cc(C(=O)Nc3cn(C)c(C(=O)NCCC(=O)NCCO)n3)n(C)c2)n1` [Compound B-51]: 100 to 500 nM; `Cn1cc(NC(=O)c2nc(NC(=O)CCNC(=O)c3cc(NC(=O)c4nccn4C)cn3C)cn2C)cc1C(=O)NCCCC(=O)Nc1cn(C)c(C(=O)NCCC(=O)Nc2cc(C(=O)Nc3cn(C)c(C(=O)NCCC(=O)NC4CCCCC4)n3)n(C)c2)n1` [Compound B-53]: 100 to 500 nM.
Take `Cn1cc(NC(=O)c2nc(NC(=O)CCNC(=O)c3cc(NC(=O)c4nccn4C)cn3C)cn2C)cc1C(=O)NCCCC(=O)Nc1cn(C)c(C(=O)NCCC(=O)Nc2cc(C(=O)Nc3cn(C)c(C(=O)NCCC(=O)N[C@H]4CC[C@H](O)CC4)n3)n(C)c2)n1` [Compound B-54]: the EC50 fell in the range of 100 to 500 nM.
As for `CN1CCC(NC(=O)CCNC(=O)c2nc(NC(=O)c3cc(NC(=O)CCNC(=O)c4nc(NC(=O)CCCNC(=O)c5cc(NC(=O)c6nc(NC(=O)CCNC(=O)c7cc(NC(=O)c8nccn8C)cn7C)cn6C)cn5C)cn4C)cn3C)cn2C)CC1` [Compound B-55], the figure is 100 to 500 nM.
Next, `CCCNC(=O)CCNC(=O)c1nc(NC(=O)c2cc(NC(=O)CCNC(=O)c3nc(NC(=O)CCCNC(=O)c4cc(NC(=O)c5nc(NC(=O)CCNC(=O)c6cc(NC(=O)c7nccn7C)cn6C)cn5C)cn4C)cn3C)cn2CCCCCCN=[N+]=[N-])cn1C` [Compound B-56]: 100 to 500 nM.
As for `CCCNC(=O)CCNC(=O)c1nc(NC(=O)c2cc(NC(=O)CCNC(=O)c3nc(NC(=O)CCCNC(=O)c4cc(NC(=O)c5nc(NC(=O)CCNC(=O)c6cc(NC(=O)c7nccn7C)cn6CCCCCCN=[N+]=[N-])cn5C)cn4C)cn3C)cn2C)cn1C` [Compound B-60], the EC50 was in the range of 100 to 500 nM.
Next, `CCCNC(=O)CCNC(=O)c1nc(NC(=O)c2cc(NC(=O)CCNC(=O)c3nc(NC(=O)CCCNC(=O)c4cc(NC(=O)c5nc(NC(=O)CCNC(=O)c6cc(NC(=O)c7nccn7C)cn6CCCCCCN)cn5C)cn4C)cn3C)cn2C)cn1C` [Compound B-61]: more than 1000 nM; `CCCNC(=O)CCNC(=O)c1nc(NC(=O)c2cc(NC(=O)CCNC(=O)c3nc(NC(=O)CCCNC(=O)c4cc(NC(=O)c5nc(NC(=O)CCNC(=O)c6cc(NC(=O)c7nccn7C)c[nH]6)cn5C)c[nH]4)cn3C)c[nH]2)cn1C` [Compound B-62]: more than 1000 nM.
Next, `CCCNC(=O)c1cc(NC(=O)c2cc(NC(=O)c3nc(NC(=O)c4nc(NC(=O)[C@@H](N)CCNC(=O)c5nc(NC(=O)CCNC(=O)c6cc(NC(=O)c7nccn7C)cn6C)cn5C)cn4C)cn3C)cn2C)cn1C` [Compound B-64]: more than 1000 nM; `CCOC(=O)CCNC(=O)c1nc(NC(=O)c2cc(NC(=O)CCNC(=O)c3nc(NC(=O)CCCNC(=O)c4cc(NC(=O)c5nc(NC(=O)CCNC(=O)c6cc(NC(=O)c7nccn7C)cn6C)cn5C)cn4C)cn3C)cn2C)cn1C` [Compound B-65]: 100 to 500 nM; `CCCNC(=O)c1cc(NC(=O)c2nc(NC(=O)CCCNC(=O)c3cc(NC(=O)c4nc(NC(=O)CCNC(=O)c5cc(NC(=O)c6nccn6C)cn5C)cn4C)cn3C)cn2C)cn1C` [Compound B-67]: more than 1000 nM.
Next, `Cn1cc(NC(=O)c2nc(NC(=O)CCNC(=O)c3cc(NC(=O)c4nccn4C)cn3C)cn2C)cc1C(=O)NCCCC(=O)Nc1cn(C)c(C(=O)NCCC(=O)Nc2cc(C(=O)Nc3cn(C)c(C(=O)NCCC(=O)N4CC(c5cnc(CN(CCCCO)CCCCO)[nH]5)C4)n3)n(C)c2)n1` [Compound B-70]: 100 to 500 nM; `COCCOCCOCCOCCOCCOCCOCCOCCN(CCOCCOCCOCCOCCOCCOCCOCCOC)C(=O)CCNC(=O)c1nc(NC(=O)c2cc(NC(=O)CCNC(=O)c3nc(NC(=O)CCCNC(=O)c4cc(NC(=O)c5nc(NC(=O)CCNC(=O)c6cc(NC(C)c7nccn7C)cn6C)cn5C)cn4C)cn3C)cn2C)cn1C` (stereo not shown) [Compound B-80]: more than 1000 nM; `CCCNC(=O)CCNC(=O)c1nc(NC(=O)c2cc(NC(=O)CCNC(=O)c3nc(NC(=O)CCCNC(=O)c4cc(NC(=O)c5nc(NC(=O)c6cc(NC(=O)CCNC(=O)c7nccn7C)cn6C)cn5C)cn4C)cn3C)cn2C)cn1C` [Compound B-83]: more than 1000 nM.
Consider `Cn1cc(NC(=O)c2nc(NC(=O)c3cc(NC(=O)CCNC(=O)c4nccn4C)cn3C)cn2C)cc1C(=O)NCCCC(=O)Nc1cn(C)c(C(=O)NCCC(=O)Nc2cc(C(=O)Nc3cn(C)c(C(=O)NCCC(=O)NCCCCN=[N+]=[N-])n3)n(C)c2)n1` [Compound B-84], for which the EC50 is more than 1000 nM.
